# Data from patent US11879145B2, “Reagents and methods for replication, transcription, and translation in semi-synthetic organisms” (The Scripps Research Institute, priority 2019, dated 2024).
# Test system: sfGFP^151(AXC)
# Assay: In vivo translation screen of XTPs/YTPs: total sfGFP fluorescence
# Assay type: cell-based, E. coli
# Method: In vivo Translation Screen of XTPs/YTPs. An overnight culture of the SSO strain ML2 carrying the pGEX-MbPylRS TetR plasmid was grown in 2×YT supplemented with 50 mM potassium phosphate, […] chloramphenicol and 100 μg/mL carbenicillin (herein referred to in this section as “media”), then diluted back to an OD600 of 0.03 in the same media and grown to an OD600 of 0.4 to 0.6. The culture was then chilled with shaking over ice-water for 15 minutes then pelleted by centrifugation at 3,200×g for 10 min. Cells were then resuspended and washed with ice-cold ddH2O twice then resuspended in ice-cold ddH2O to OD600 of 55-65. The electrocompetent cells (50 μL) and 1 ng of Golden Gate assembled plasmid with the UBP within the sfGFP and tRNAPyl genes (see Golden Gate Assembly of Plasmids) were transferred to a pre-chilled electroporation cuvette (0.2-cm-gap), then electroporated (Gene Pulser II; Bio-Rad) according to manufacturer's recommendations (voltage […], capacitor 2.5 μF, resistor 200Ω), and then immediately diluted with 950 μL of media. An aliquot (40 μL) of the transformation was then diluted five-fold in media supplemented with dCNMOTP (25 μM) and dTPT3TP (10 μM) for a final volume of 200 μL then allowed to recover for 1 h shaking at 37° C. Two-fold dilutions of the recovery were plated onto solid media supplemented with zeocin (50 μg/mL), dCNMOTP (10 μM), dTPT3TP (10 μM), and agar (2% w/v), then grown at 37° C. for 18 h. Single colonies were picked and grown in media (300 μL) supplemented with 50 μg/mL zeocin and provided dCNMOTP (25 μM) and dTPT3TP (10 μM) (herein afterward referred to in this section as “growth media”). The culture was monitored for cell growth (Envision 2103 Multilabel Plate Reader with a 590/20 nm filter) and then collected at an OD600˜1.0. An aliquot (50 μL) was subjected to plasmid isolation using the ZR Plasmid Prep Kit (Zymo Research). Isolated plasmids were then subjected to the streptavidin gel shift assay described below (using primers P3-4 and P5-6, Table S1) to determine UBP retention.
# A colony with excellent UBP retention was then diluted to an OD600˜0.01 in growth media and grown to OD600˜0.4-0.6. This culture was then divided into multiple 300 μL cultures and for the screen of XTP analogs, each was provided with the corresponding XTP (at either 25 μM or 250 μM) or ddH2O for “−XTP” samples, TPT3TP (30 μM), and AzK (10 mM). For the screen of YTP analogs, each 300 μL culture was provided with the corresponding YTP (at either 25 μM or 250 μM) or ddH2O for “−YTP” samples, NaMTP (250 μM), and AzK (10 mM). Samples were shielded from light after addition of AzK to prevent photodegradation. These samples were then grown at 37° C. for 20 min before adding 1 mM IPTG and grown at 37° C. for an additional 1 h to induce T7 RNAP and transcription of tRNAPyl and PylRS. From this point on, cells were monitored for growth and fluorescence. Expression of sfGFP was then induced with anhydrotetracycline (100 ng/mL). After an additional 3 h of growth at 37° C., cells were collected (230 μL for affinity purification of sfGFP), cooled, and then pelleted and stored at −80° C. before protein purification.
# An SAR analysis was initiated with NaMTP and the nine XTP analogs. Based on performance in the dXTP screen described above, and to eliminate variable loss at the DNA level as a complicating factor, the unnatural information was encoded with the dCNMO-dTPT3 UBP. Additionally, the E. coli strain ML2, which expresses the nucleoside triphosphate transporter PtNTT2, but has also been genetically engineered for higher fidelity replication of the UBP by deletion of the gene encoding RecA (as is common in cloning strains) and overexpression of DNA Pol II was used. The same plasmid described above in Examples 1A and 1, harboring sfGFP^151(AXC) and tRNA^Pyl(GYT), was used, and to focus the screen to a single unnatural ribonucleotide, the M. mazei Pyl tRNA was transcribed in the presence of 30 μM TPT3TP. […]
compound,measurement,setting,value
COc1cc(C)c(F)cc1[C@@H]1O[C@H](COP(=O)(O)OP(=O)(O)OP(=O)(O)O)[C@@H](O)[C@H]1O [Compound 5FMTP],More fluorescence than MMO2TP,XTP 25 μM,34%
same,Bulk fluorescence compared to cells grown with NaMTP at the same concentration,XTP 250 μM,90%
